From publication PMC7663272, “Discovery of Tricyclic Pyranochromenone as Novel Bruton’s Tyrosine Kinase Inhibitors with In Vivo Antirheumatic Activity” (International Journal of Molecular Sciences, 2020)

Assays:
CYP2C9 = biological target: T1, CYP2C9 (Homo sapiens, UniProt P11712); test: P450-Glo CYP inhibition assay, CYP2C9; format: in vitro ADME
T1 construct: purchased Promega V9790
Protocol: (§1) The potential for CYP450 inhibition (CYP1A2, 2C9, 2C19, 2D6, and […]) was assessed using Promega P450-Glo^TM CYP450 assay systems. Luciferin-ME served as the substrate for CYP1A2, and the inhibitor α-naphthoflavone was used as a positive control. Luciferin-H was used as the substrate for CYP2C9, and the inhibitor sulfaphenazole was used as a positive control. Luciferin-H EGE was selected as the substrate for CYP2C19, whereas the inhibitor amitriptyline served as a positive control. Luciferin-ME EGE was used as the substrate for CYP2D6, whereas the inhibitor quinidine served as a positive control. Luciferin-BE was used as the substrate for CYP3A4, whereas the inhibitor ketoconazole was used as a positive control. The assays were performed using the excitation and emission wavelengths recommended by the manufacturer. Briefly, a CYP enzyme and a P450-Glo™ substrate were combined in potassium phosphate (0.1 M KPO4) buffer, with or without a test compound of interest, and […]. The reaction was initiated by adding two volumes of 2 times concentrated NADPH regeneration system. […] Luminescence was subsequently measured using a Tecan Infinite M1000 PRO microplate reader (Tecan Group Ltd., Switzerland). The percent inhibition was calculated relative to that of the positive control at a fixed concentration. […]

EGFR = biological target: T2, EGFR (Homo sapiens, UniProt P00533); test: HotSpot kinase enzymatic assay, EGFR; format: biochemical
T2 construct: purchased Reaction Biology Corporation
Protocol: (§2) Therefore, efforts have focused on developing new compounds with good selectivity profiles. […] Compound 8 was selective against BTK. The biochemical activities of compound 8 differed among TEC family kinases. […] The inhibitory potential of compound 8 differed between members of the EGFR family. […] The inhibitory activity of compound 8 against JAK3 was also low.
(§3) Kinase enzymatic assays for BTK, BMX, TXK, TEC, ITK, EGFR, ERBB2, ERBB4, and JAK3 were performed at Reaction Biology Corporation (www.reactionbiology.com, Malvern, PA, USA) using the HotSpot assay platform. Briefly, specific kinase/substrate pairs and the required cofactors were prepared in a reaction buffer comprising 20 mM HEPES (pH 7.5), 10 mM MgCl2, 1 mM EGTA, 0.02% Brij35, 0.02 mg/mL BSA, 0.1 mM Na3VO4, 2 mM DTT, and 1% DMSO. The compounds were added to the reaction mixture and allowed to incubate. Approximately 20 min later, a mixture of ATP (Sigma-Aldrich, St. Louis, MO, USA) and ^33P ATP (PerkinElmer, Waltham, MA, USA) was added to the reaction mixture at a final concentration of 10 μM. The reactions were performed at room temperature for 120 min; subsequently, the reactions were spotted onto P81 ion exchange filter papers (Whatman Inc., Maidstone, UK). Any unbound phosphate was removed by thoroughly washing the filter papers with 0.75% phosphoric acid. […]

CYP2D6 = biological target: T3, CYP2D6 (Homo sapiens, UniProt P10635); test: P450-Glo CYP inhibition assay, CYP2D6; format: in vitro ADME
T3 construct: purchased Promega V9890
Protocol: as §1

ITK = biological target: T4, ITK (Homo sapiens, UniProt Q08881); test: HotSpot kinase enzymatic assay, ITK; format: biochemical
T4 construct: purchased Reaction Biology Corporation
T4 sequence (Q08881 1-620): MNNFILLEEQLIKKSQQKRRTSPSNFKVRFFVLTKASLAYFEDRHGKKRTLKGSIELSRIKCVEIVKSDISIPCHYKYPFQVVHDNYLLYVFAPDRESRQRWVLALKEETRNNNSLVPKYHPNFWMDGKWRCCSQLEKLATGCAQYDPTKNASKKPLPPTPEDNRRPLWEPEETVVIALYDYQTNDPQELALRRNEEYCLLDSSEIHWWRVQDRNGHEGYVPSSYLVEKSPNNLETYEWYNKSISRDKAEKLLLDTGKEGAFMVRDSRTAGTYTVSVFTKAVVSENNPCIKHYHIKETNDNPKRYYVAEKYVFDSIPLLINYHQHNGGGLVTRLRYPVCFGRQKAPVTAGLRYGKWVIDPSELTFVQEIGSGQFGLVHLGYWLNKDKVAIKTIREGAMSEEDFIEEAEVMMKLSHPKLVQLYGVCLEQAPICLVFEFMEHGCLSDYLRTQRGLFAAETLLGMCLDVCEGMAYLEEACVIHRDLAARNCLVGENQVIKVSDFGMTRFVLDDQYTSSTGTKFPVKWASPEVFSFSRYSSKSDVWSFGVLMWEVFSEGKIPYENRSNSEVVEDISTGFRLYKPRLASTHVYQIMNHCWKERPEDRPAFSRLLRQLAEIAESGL
Protocol: as §2, §3

[1] = % inhibition of human CYP isozymes at 10 μM

T3 sequence (P10635 whole entry): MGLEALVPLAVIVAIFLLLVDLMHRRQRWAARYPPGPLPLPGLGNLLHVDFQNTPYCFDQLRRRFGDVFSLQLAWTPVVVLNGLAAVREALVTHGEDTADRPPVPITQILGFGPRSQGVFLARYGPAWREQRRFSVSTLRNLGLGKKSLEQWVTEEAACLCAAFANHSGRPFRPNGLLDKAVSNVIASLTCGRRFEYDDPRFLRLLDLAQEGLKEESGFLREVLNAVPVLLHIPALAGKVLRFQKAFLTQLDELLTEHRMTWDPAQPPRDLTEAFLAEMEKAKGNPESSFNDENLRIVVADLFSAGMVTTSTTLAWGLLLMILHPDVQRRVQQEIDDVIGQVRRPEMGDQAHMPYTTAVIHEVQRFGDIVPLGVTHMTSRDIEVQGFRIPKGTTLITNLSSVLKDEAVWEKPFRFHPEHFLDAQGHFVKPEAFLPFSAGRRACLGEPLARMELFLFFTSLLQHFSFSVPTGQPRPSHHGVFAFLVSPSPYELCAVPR
T2 sequence (P00533 25-1210): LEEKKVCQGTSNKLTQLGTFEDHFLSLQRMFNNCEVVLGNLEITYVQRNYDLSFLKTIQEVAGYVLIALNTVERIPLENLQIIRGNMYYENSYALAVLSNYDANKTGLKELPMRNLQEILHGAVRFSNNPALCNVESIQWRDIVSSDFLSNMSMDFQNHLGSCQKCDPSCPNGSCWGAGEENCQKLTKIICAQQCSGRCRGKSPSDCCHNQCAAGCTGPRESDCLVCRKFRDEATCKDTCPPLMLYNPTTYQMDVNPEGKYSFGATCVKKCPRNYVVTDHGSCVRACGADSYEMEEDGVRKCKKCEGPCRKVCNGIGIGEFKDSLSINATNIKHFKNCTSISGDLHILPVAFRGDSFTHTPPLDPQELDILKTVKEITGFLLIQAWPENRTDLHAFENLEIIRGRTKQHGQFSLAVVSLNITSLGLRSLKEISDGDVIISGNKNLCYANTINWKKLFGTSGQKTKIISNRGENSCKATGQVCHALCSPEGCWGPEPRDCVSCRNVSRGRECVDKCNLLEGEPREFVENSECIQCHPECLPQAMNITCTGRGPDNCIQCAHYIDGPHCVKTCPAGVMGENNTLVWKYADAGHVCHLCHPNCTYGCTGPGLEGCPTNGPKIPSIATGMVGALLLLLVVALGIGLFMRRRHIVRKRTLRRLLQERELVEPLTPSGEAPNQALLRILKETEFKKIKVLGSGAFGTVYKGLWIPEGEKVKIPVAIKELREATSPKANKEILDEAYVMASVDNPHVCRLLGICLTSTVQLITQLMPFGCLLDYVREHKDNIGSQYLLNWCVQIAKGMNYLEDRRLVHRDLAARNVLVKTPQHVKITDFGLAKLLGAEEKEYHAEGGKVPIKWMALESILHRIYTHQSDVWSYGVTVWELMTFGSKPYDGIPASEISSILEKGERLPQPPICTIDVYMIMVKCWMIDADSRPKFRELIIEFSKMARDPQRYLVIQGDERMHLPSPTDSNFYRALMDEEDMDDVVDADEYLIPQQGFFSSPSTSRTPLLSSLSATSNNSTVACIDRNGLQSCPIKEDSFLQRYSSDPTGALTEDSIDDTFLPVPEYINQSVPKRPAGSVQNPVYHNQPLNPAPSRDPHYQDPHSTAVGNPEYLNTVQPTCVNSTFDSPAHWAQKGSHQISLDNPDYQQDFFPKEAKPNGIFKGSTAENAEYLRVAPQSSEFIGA
T1 sequence (P11712 whole entry): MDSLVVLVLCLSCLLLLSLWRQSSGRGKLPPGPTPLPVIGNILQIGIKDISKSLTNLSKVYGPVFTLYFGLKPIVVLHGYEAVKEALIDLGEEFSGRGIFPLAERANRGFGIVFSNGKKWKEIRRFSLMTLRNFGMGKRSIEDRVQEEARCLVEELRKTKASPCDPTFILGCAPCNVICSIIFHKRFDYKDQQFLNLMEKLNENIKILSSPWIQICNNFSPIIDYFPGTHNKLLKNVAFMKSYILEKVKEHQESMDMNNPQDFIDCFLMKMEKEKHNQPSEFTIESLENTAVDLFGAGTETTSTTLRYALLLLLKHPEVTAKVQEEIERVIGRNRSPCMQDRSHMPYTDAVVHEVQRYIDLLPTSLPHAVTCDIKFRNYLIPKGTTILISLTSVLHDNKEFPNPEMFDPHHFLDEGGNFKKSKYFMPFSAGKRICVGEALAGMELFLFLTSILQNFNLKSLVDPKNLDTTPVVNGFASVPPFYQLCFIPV

C=CC(=O)O[C@H]1Cc2cc3ccc(=O)oc3cc2OC1(C)C [Compound 8, (7S)-(+)-Acrylic acid, 8,8-dimethyl-2-oxo-6,7-dihydro-2H,8H-pyrano [3,2-g]chromen-7-yl ester]
CYP2C9 inhibition (in words) (CYP2C9): moderately inhibited | CYP inhibition 2C9 (CYP2C9; [1]): 66.1% | inhibitory activity against EGFR (in words) (EGFR): weak inhibitory activity | inhibition at 10 µM (EGFR; 10 µM, mean of two experiments): 32.9% | CYP2D6 inhibition (in words) (CYP2D6): weakly inhibited | CYP inhibition 2D6 (CYP2D6; [1]): 18.9% | inhibitory activity against ITK (in words) (ITK): weak inhibitory activity | inhibition at 10 µM (ITK; 10 µM, mean of two experiments): 17.3%
